Type in all cases: in vivo, FVB mice
For one data set, the system named is PI3K. In words: Intracranial target inhibition, immunoblotting of brain lysates. Here is the method: (§1) Figure 3 Buparlisib has excellent intracranial target engagement and oral bioavailability. (A) Buparlisib was orally administered to wildtype mice at a dose of 1 mg/kg, 2 mg/kg or 5 mg/kg. One hour after injection, blood and tissues were collected for LC-MS/MS analysis. Buparlisib plasma and brain levels increase dose-dependently, yielding similar and excellent brain-plasma ratios at all dose levels that were tested. (B) Immunoblotting of brain tissue lysates from (A). […] (C) Plasma-time curves of male and female wildtype mice following intravenous (2 mg/kg) or oral (5 mg/kg) administration. […] The oral bioavailability of buparlisib is excellent, since oral and intravenous administration yielded similar dose-adjusted AUCs (see Table 1). All data are represented as mean ± SD (n = 4).
Next, we studied the intracranial pharmacodynamics of buparlisib in WT FVB mice as measured by target inhibition.
Mouse brains were homogenized in RIPA buffer supplemented with sodium fluoride (2 mM), sodium orthovanadate (1 mM), sodium pyrophosphate (1 mM), β-glycerophosphate (2.5 mM), PMSF (1 mM), DTT (1 mM) and protein inhibitor cocktail (Roche; Basel, Switzerland). The primary antibodies that were used in this study are phospho-Akt^S473 (1:1000; D9E, #4060; Cell Signaling Technology; Danvers, MA), total Akt (1:1000; #9272; Cell Signaling Technology), phospho-Erk1^T202/204/Erk2^T183/Y185 (1:1000; sc-16982; Santa Cruz Biotechnology, Dallas, TX), total Erk1/2 (1:1000; C16, sc-93; Santa Cruz Biotechnology) and β–tubulin (1:1000; T3952; Sigma-Aldrich, St. Louis, MO). Goat-anti-rabbit-HRP (1:2000; DAKO, Santa Clara, CA) was used a secondary antibody.

The nature of data set [1]: Plasma and brain levels after oral administration in wildtype mice. The method, then:
First, we could confirm that buparlisib also achieves excellent brain penetration after oral administration, since the observed brain-plasma ratio in WT FVB mice was in line with those obtained following i.v. administration (Figs 2C, 3A).
as §1
The pharmacokinetics of buparlisib were analysed in WT, Abcg2^−/−, Abcb1a/b^−/− and Abcb1a/b; Abcg2^−/− FVB mice. All knockout mice strains have been developed within our institute[41]–[43]. For i.v. administration, buparlisib was dissolved in DMSO and injected at a dose of 2 mg/kg. For oral administration, buparlisib was formulated in DMSO:Cremophor EL:water (1:1:8 v/v/v) and administered at 1, 2 or 5 mg/kg as indicated. Tail vein bleeding was used to collect blood at intermediate time points, whereas at the last time point blood was drawn by cardiac puncture and various tissue were collected. Plasma was obtained from whole blood by centrifugation (5 min, 5,000 rpm, 4 °C). After weighing, tissues were homogenized using a FastPrep®-24 (MP-Biomedicals, NY) in 1% (w/v) bovine serum albumin in water. […]
Buparlisib was measured in samples from in vitro transport assays and in vivo pharmacokinetic studies using an LC-MS/MS system comprised of an UltiMate 3000 LC Systems (Dionex, Sunnyvale, CA) and an API 4000 mass spectrometer (Sciex, Framingham, MA). […]

A short description of data set [2]: Brain and tissue penetration after i.v. administration in wildtype and P-gp/BCRP knockout mice. As to conditions: 2 mg/kg i.v. Here is the method: To study whether P-gp and BCRP attenuate buparlisib brain penetration in vivo, we measured the brain and plasma concentration in wildtype (WT), Abcg2^−/−, Abcb1a/b^−/− and Abcb1a/b; Abcg2^−/− mice 1 hour after i.v. administration of 2 mg/kg buparlisib.
Figure 2 The impact of P-gp and BCRP on the brain and tissue penetration of buparlisib. Buparlisib was administered intravenously to wildtype, Abcg2^−/−, Abcb1a/b^−/− and Abcb1a/b;Abcg2^−/− mice at a dose of 2 mg/kg. One hour after injection, blood and tissues were collected for LC-MS/MS analysis. […] All data are represented as mean ± SD (n = 4).
The pharmacokinetics of buparlisib were analysed in WT, Abcg2^−/−, Abcb1a/b^−/− and Abcb1a/b; Abcg2^−/− FVB mice. All knockout mice strains have been developed within our institute[41]–[43]. For i.v. administration, buparlisib was dissolved in DMSO and injected at a dose of 2 mg/kg. For oral administration, buparlisib was formulated in DMSO:Cremophor EL:water (1:1:8 v/v/v) and administered at 1, 2 or 5 mg/kg as indicated. Tail vein bleeding was used to collect blood at intermediate time points, whereas at the last time point blood was drawn by cardiac puncture and various tissue were collected. Plasma was obtained from whole blood by centrifugation (5 min, 5,000 rpm, 4 °C). After weighing, tissues were homogenized using a FastPrep®-24 (MP-Biomedicals, NY) in 1% (w/v) bovine serum albumin in water. Buparlisib was extracted from plasma and tissue homogenate by liquid-liquid extraction with ethyl acetate using AZD8055 as an internal standard.
Buparlisib was measured in samples from in vitro transport assays and in vivo pharmacokinetic studies using an LC-MS/MS system comprised of an UltiMate 3000 LC Systems (Dionex, Sunnyvale, CA) and an API 4000 mass spectrometer (Sciex, Framingham, MA). Samples were run through a Securityguard C18 pre-column (Phenomenex, Utrecht, The Netherlands) prior to separation on a ZORBAX Extend-C18 column (Agilent, Santa Clara, CA). Elution was done using a in a 5 minute gradient from 20% to 95% B (mobile phase A was 0.1% HCOOH in water (v/v) and mobile phase B was methanol). 95% B was maintained for 3 min followed by re-equilibration at 20% B. Multiple reaction monitoring was performed at 411.3/367.2 (buparlisib) and 418.2/138.4 (AZD8055). Analyst® 1.6.2 software (AB Sciex; Foster City, CA) was used for system control and data analysis.
As described in detail before, CETA results were analysed with the General linear model repeated measures procedure of SPSS (v22; SPSS Inc, Chicago, IL)[25]. PK solver was used to determine pharmacokinetic parameters. The standard error of the oral bioavailability was calculated using the formula below: SEF=F(SEAUCp.o./AUCp.o.)^2+(SEAUCi.v./AUCi.v.)^2 Buparlisib concentrations in WT and transporter knockout mice in vivo were compared using one-way analysis of variance followed by post hoc Bonferroni tests. Statistical differences between the buparlisib PK parameters in male and female mice were calculated as Bonferroni corrected p-values using multiple Student’s t-tests. Differences were considered statistically significant when p < 0.05.

The record followed here is article PMC6050274, “Buparlisib is a brain penetrable pan-PI3K inhibitor” (Scientific Reports, 2018).

The structures appear in SMILES notation.

Regarding `Nc1cc(C(F)(F)F)c(-c2cc(N3CCOCC3)nc(N3CCOCC3)n2)cn1` [buparlisib], the “phosphorylation of Akt S473 in the brain” value in the data set on PI3K (oral 5 mg/kg, wildtype mice) was “efficiently inhibited”. Also, the “phosphorylation of AKT in brain lysates” value in the data set on PI3K (oral 1, 2, 5 mg/kg, WT FVB mice) is “dose-dependently decreased”. In addition, in the data set with PI3K (oral, WT FVB mice), the “signalling through ERK in brain lysates” value is on record as “without affecting”. The Kp at 1 h in data set [1] (FVB, mouse, brain/plasma, other: intravenous and oral, i.v. 2 mg/kg and oral 1, 2, 5 mg/kg (Figs 2C, 3A), read-out: brain-plasma ratio) lay within 1.5 to 2. In addition, in data set [1] (FVB, mouse, plasma, 5 mg/kg oral, WT mice, 1 hour, read-out: plasma level), the concentration at 1 h was approximately 1200 ng/mL. Besides, in data set [1] (oral 1, 2, 5 mg/kg, WT mice, 1 hour), the “change of plasma and brain concentrations with dose” value was “dose-proportional increase”. For the same compound, in data set [2] (1 hour), the “brain concentration compared with liver, kidney and spleen concentrations” value is “slightly higher”; the “kidney level compared with concurrent plasma level” value is reported as “lower”; the “liver level compared with concurrent plasma level” value is “equal”; the “spleen level compared with concurrent plasma level” value is reported as “lower”. Also, in data set [2] (1 hour, WT vs transporter knockout mice), the “differences among mouse strains in plasma and brain concentrations” value is recorded as “No differences”. Also, the Kp at 1 h in data set [2] (FVB, mouse, brain/plasma, intravenous, all strains (WT, Abcg2-/-, Abcb1a/b-/-, Abcb1a/b;Abcg2-/-), read-out: brain-plasma ratio) is 1.5 to 2.
